Measured values reported in patent publication US20210205292A1, “INHIBITORS OF CREB-CBP INTERACTION FOR TREATMENT OF LEUKEMIA” (The Board of Trustees of the Leland Stanford Junior …, priority 2016, published 2021).

What was measured:
KG-1 cells [1] = assay: Cell cycle analysis of synchronized KG-1 cells by flow cytometry; assay type: cell-based
Method: KG-1 cells were synchronized at prometaphase using a modified thymidine plus nocodazole block (Whitfield et al. identification of genes periodically expressed in the human cell cycle and their expression in tumors. Mol Biol Cell. 2002; 13(6):1977-2000). Briefly, KG-1 cells were treated with 2 mM thymidine for 30 h, washed with PBS and released from G1/S block in fresh media for 4 h. The cells were incubated with 300 nM nocodazole (Sigma) for 13 h. Compound A or DMSO was added 3 hours before release. The synchronized cells were washed with PBS and released from the mitotic block in fresh media containing Compound A or DMSO. To analyze DNA content by flow cytometry, cells were harvested, fixed in 70% ice-cold ethanol for at least 1 hour at −20° C., and then incubated in propidium iodide (PI) staining buffer (PBS containing RNase A (50 μg/ml), 0.1% sodium citrate, and PI ([…])) for 30 minutes at RT. Cells were analyzed on a FACS Calibur flow cytoneter (BD Biosciences). Cell-cycle distribution was determined using FlowJo software (TreeStar).
CREB regulates the cell cycle by virtue of transcriptionally regulating the expression of key cell cycle genes. Thus, the effect of Compound A on this aspect of cell function was also examined. […]

KG-1 cells [2] = assay: Viable cell count of engineered KG-1 cell lines (CREB KD, GFP, CREB OE, CBP OE); assay type: cell-based; conditions: Homo sapiens, KG-1, 48 h, 48 hours
Method: (§1) AML cell lines were purchased from ATCC and maintained with IMDM (Gibco) supplemented with 10% FBS (Fisher Scientific) and 1% PSG (Gibco). Cells were plated at a density of 2-4×10^5 cells/ml, and treated with various doses of Compound A in 0.1% DMSO or 0.1% DMSO alone. Cell counts and viability were determined using the Vi-CELL XR Cell Viability Analyzer (Beckman Coulter). HL-60 and KG-1 cells overexpressing CREB or CBP were generated using lentiviral gene delivery with subsequent puromycin selection and FACs sorting for GFP. CREB knockdown was achieved by infecting cells with a lentivirus expressing the shRNA sequence 5′-[…]-3′ (SEQ ID NO:). For chemotherapy combination experiments, combination index values were calculated using median effects analysis on Calcusyn software. Human patient bone marrow samples were cultured in DMEM plus 20% FBS and 1×PSG, supplemented with recombinant GM-CSF (20 ng/ml), G-CSF (20 ng/ml), SCF (50 ng/ml), IL-3 (20 ng/ml), and IL-6 (10 ng/ml). Cells were plated at a concentration of 1×10^5 cells/ml in a 12-well plate. Vehicle (0.1% DMSO) or Compound A (2 μM) was added for up to 72 hours. All samples contained >85% AML blasts and were not sorted prior to performing experiments. Immunostaining and flow cytometry analyses were performed according to standard procedures. All antibodies were purchased from BD Biosciences. Single cell suspensions of bone marrow culture were subsequently analyzed on a D×P10 flow cytometer (Cytek). Bone marrow from AML patients were collected through voluntary patient participation at University of California, Los Angeles (Los Angeles, Calif., USA) and Stanford University (Palo Alto, Calif., USA) in compliance with the Institutional Review Board regulations of each institution.
To test the effects of CREB inhibition on AML cells, four AML cell lines were treated with doses of Compound A ranging from 100 pM to 10 μM for 48 hours. […] KG-1 cells were less sensitive to Compound A and expressed lower levels of CREB compared to HL-60 cells (FIG. 2, panel A). CREB was overexpressed to determine whether sensitivity of KG-1 cells to Compound A could be increased. KG-1 cell lines in which CREB or CBP was overexpressed, or CREB was knocked down by shRNA, were generated (FIG. 2C). A KG-1 cell line expressing only GFP was used as a control. These cell lines were treated with a range of Compound A concentrations for 48 hours (FIG. 2D). Experiments were also performed to examine the efficacy of combining Compound A with cytarabine or daunorubicin, standard drugs used in AML therapy.

[3] = target: T1, KIX domain of CBP, Arginine-600 to Alanine mutant (GST fusion) (Homo sapiens, UniProt Q92793, R601A); assay: Biacore surface plasmon resonance, binding to KIX Arg-600-Ala mutant versus native KIX; conditions: 5 μM
T1 construct: spans CBP amino acids 586-666; made in house; host or cells: E. coli BL21(DE3)
Method: KIX domain mutants were created by standard cloning and mutagenesis methods in the pGEX4T3 vector (GE Healthcare Life Sciences). GST-KIX fusion proteins were expressed in BL21(DE3-) cells (New England Biolabs) following induction with 1 mM IPTG for 6 hours at 37 degrees. GST-KIX and its mutants were purified with the B-PER GST Fusion Protein Spin Purification Kit (Thermo Scientific/Pierce). Surface Plasmon Resonance (Biacore) analysis was performed on a GE Biacore 3000 surface plasmon resonance instrument in collaboration with the Stanford Protein and Nucleic Acid (PAN) Facility.
To confirm the binding of Compound A to the KIX domain of CBP, the KIX domain was expressed and purified as a fusion protein with Glutathione-S-Transferase (GST). Binding of Compound A to the KIX domain and two KIX domain mutants in which residues critical for CREB binding were altered or removed (Arg-600 mutated to Alanine or deletion of amino acids 586-602) was determined by Surface Plasmon Resonance (Biacore) analysis (FIG. 1, panel B). Mutation of Arginine-600 to Alanine reduced binding of Compound A by ˜45%, while a KIX domain mutant lacking amino acids 586-602 reduced binding by ˜70%. […] A hypothetical binding model between Compound A and CBP KIX domain is shown (FIG. 1, panel C). […]

[4] = tested on: primary AML patient bone marrow samples; assay: Primary AML patient bone marrow samples, Trypan blue exclusion assay; assay type: cell-based, human; conditions: 2 μM, 72 hours
Method: as §1, with “Immunostaining and flow cytometry analyses were performed according to standard procedures. All antibodies were purchased from BD Biosciences.” left out, “Bone marrow from AML patients were collected through voluntary patient participation at University of California, Los Angeles (Los Angeles, Calif., USA) and Stanford University (Palo Alto, Calif., USA) in compliance with the Institutional Review Board regulations of each institution.” left out

T1 sequence (Q92793 586-666 R601A): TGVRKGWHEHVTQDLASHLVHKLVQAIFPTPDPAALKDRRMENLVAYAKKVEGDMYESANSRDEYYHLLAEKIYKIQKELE

N#Cc1ccc(NC(=O)c2cc3ccccc3cc2O)cc1 [Compound A, N-(4-cyanophenyl)-3-hydroxy-2-naphthamide]
% cells in G1-phase (KG-1 cells [1]; 4 hours following release): 66.20±1.83% | % cells in G1-phase (KG-1 cells [1]; 8 hours following release): 55.41±0.59% | IC50 (KG-1 cells [2]; KG-1 CBP OE): 826 nM | IC50 (KG-1 cells [2]; KG-1 CREB KD): 1790 nM | IC50 (KG-1 cells [2]; KG-1 CREB OE): 687 nM | IC50 (KG-1 cells [2]; KG-1 GFP control): 1040 nM | reduction of binding of Compound A by mutation of Arginine-600 to Alanine [3]: ~45% | decreased viable cell count [4]: a range of responsiveness
